Measured values: patent US12606561B2, “Substituted pyrazolo[1,5-a][1,3,5]triazines as CDK inhibitors” (QURIENT CO., LTD., priority 2018, dated 2026)

What was measured:
Format in all cases: biochemical
CDK7/Cyclin H/MNAT1 = target: T1, CDK7/Cyclin H/MNAT1 (Homo sapiens, UniProt P50613); test: Enzymatic assay for CDK7 (LANCE Ultra kinase assay, FRET based); conditions: for IC50: ATP at Km
T1 construct: purchased Invitrogen PR6749B
Experimental: (§1) Enzymatic Binding Assay Protocol for CDK1, CDK2, CDK5 and CDK7
(§2) Inhibition activity of the respective compound on CDK kinase under Km value of ATP was tested in FRET based The LANCE® Ultra kinase assay (Perkin Elmer), which uses a ULight™-labeled peptide substrate and an appropriate Europium-labeled anti-phospho-antibody. […] After 1 min centrifugation at 1000 rpm, purified CDKs/Cyclin complex were added with the following concentrations respectively. […] Data were analyzed using XL Fit software.

CDK1/Cyclin B = target: T2, CDK1/Cyclin B (Homo sapiens, UniProt P06493); test: Enzymatic assay for CDK1 (LANCE Ultra kinase assay, FRET based); conditions: ATP at Km; read-out: CDK1 enzymatic activity IC50
T2 construct: purchased Invitrogen PR4768C
T2 sequence (P06493 whole entry): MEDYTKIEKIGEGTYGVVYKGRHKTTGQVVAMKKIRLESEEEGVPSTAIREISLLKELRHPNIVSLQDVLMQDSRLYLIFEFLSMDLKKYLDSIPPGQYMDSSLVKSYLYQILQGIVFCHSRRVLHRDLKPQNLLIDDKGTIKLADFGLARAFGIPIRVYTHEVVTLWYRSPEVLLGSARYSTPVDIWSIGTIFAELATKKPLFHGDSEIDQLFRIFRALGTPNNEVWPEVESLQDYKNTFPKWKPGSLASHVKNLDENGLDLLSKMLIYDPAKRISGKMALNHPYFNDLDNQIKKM
T2 sequence (P14635 whole entry partner): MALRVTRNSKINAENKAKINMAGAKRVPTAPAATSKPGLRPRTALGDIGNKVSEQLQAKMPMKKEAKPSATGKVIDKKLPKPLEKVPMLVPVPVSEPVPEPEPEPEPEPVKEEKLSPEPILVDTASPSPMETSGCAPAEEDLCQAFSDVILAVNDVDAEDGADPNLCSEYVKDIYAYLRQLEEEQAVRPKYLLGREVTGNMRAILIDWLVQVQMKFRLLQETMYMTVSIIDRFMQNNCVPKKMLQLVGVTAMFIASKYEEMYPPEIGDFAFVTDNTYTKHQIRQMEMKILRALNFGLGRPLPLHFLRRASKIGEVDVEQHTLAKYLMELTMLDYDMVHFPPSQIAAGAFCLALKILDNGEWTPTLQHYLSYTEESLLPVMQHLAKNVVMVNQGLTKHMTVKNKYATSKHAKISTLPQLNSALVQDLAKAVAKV
Experimental: as §1, §2

CDK5/p25 = target: T3, CDK5/p25 (Homo sapiens, UniProt Q00535); test: Enzymatic assay for CDK5 (LANCE Ultra kinase assay, FRET based); conditions: ATP at Km
T3 construct: purchased Invitrogen PR8543B
T3 sequence (Q00535 whole entry): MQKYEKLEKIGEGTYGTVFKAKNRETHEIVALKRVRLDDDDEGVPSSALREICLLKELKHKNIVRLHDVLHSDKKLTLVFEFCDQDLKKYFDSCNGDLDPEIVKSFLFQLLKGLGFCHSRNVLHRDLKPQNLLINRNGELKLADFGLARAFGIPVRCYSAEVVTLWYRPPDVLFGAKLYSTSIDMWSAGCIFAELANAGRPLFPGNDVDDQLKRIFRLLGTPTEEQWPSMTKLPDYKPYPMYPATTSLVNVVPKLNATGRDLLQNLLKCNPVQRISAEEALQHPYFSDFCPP
T3 sequence (Q15078 99-307 partner limits assumed): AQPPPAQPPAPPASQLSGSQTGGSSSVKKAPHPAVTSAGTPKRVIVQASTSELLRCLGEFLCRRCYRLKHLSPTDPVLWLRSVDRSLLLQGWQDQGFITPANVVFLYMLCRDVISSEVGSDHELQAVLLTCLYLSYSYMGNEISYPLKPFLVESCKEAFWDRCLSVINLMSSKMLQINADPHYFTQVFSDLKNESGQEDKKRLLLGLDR
Experimental: as §1
(§3) Inhibition activity of the respective compound on CDK kinase under Km value of ATP was tested in FRET based The LANCE® Ultra kinase assay (Perkin Elmer), which uses a ULight™-labeled peptide substrate and an appropriate Europium-labeled anti-phospho-antibody. Test compounds were made with DMSO solutions, and then 4-fold serial dilutions for 8 doses were prepared using automated liquid handler (POD™ 810, Labcyte) and 80 nL/well of diluted compound solutions were added into the 384-well plates (Greiner, Cat #784075). And then 68 nM of ULight-MBP peptide (Perkin Elmer, Cat #TRF0109-M) and 5 ul/well of ATP (Sigma, Cat #A7699) were added to the plate. After 1 min centrifugation at 1000 rpm, purified CDKs/Cyclin complex were added with the following concentrations respectively. 24 uM for CDK1/Cyclin B (Invitrogen, Cat #PR4768C), 22 uM for CDK2/Cyclin A (Invitrogen, Cat #PV6290), 10 uM for CDK5/p25 (Invitrogen, Cat #PR8543B) and […] for CDK7/Cyclin H/MNAT1 (Invitrogen, Cat #PR6749B) were added to each corresponding plate for CDK1, CDK2, CDK5 and CDK7. Incubate at 23° C. for 60 min and then Eu-labeled anti-phospho-Myelin Basic Protein (PE, Cat #TRF0201-M) and EDTA (Invitrogen, Cat #15575038) mixture in Lance Detection Buffer (Perkin Elmer, Cat #CR97100) was added in each well. After additional incubation at 23° C. for 60 min, test articles were measured the fluorescence using Envision leader (Perkin Elmer, USA) [Laser as excitation light; […] as the first and the second emission filter]. Data were analyzed using XL Fit software.

CDK2/Cyclin A = target: T4, CDK2/Cyclin A (Homo sapiens, UniProt P24941); test: Enzymatic assay for CDK2 (LANCE Ultra kinase assay, FRET based); conditions: ATP at Km
T4 construct: purchased Invitrogen PV6290
Experimental: as §1, §3

T1 sequence (P50613 whole entry): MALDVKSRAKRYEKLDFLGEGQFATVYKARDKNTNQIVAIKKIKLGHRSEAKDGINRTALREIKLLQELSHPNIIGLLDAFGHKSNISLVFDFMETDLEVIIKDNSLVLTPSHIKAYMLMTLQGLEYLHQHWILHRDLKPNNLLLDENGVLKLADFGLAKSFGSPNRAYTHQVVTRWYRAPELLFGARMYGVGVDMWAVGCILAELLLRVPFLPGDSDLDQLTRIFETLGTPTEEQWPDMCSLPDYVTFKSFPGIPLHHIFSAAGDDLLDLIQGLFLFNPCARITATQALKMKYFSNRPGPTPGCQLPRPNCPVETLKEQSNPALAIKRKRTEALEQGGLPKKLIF
T1 sequence (P51946 whole entry partner): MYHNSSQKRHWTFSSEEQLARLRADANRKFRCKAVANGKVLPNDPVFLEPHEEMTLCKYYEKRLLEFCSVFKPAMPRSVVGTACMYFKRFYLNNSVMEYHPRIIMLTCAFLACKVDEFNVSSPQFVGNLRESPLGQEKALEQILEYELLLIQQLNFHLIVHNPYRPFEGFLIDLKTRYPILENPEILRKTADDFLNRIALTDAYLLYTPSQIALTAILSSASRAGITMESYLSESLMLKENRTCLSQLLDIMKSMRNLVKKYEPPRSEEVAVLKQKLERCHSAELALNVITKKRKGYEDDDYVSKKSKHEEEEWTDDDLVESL
T1 sequence (P51948 whole entry partner): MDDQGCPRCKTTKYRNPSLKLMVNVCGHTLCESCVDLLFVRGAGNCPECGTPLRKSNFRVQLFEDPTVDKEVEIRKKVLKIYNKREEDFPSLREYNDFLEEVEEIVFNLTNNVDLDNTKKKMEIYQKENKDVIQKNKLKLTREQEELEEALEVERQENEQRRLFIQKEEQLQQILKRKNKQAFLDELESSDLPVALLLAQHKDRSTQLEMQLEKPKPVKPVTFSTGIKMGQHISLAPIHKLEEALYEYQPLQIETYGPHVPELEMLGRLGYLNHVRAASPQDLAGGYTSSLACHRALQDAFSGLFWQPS

| SMILES | IC50 (CDK7/Cyclin H/MNAT1) [nM] | CDK1/CDK7: Selectivity of CDK7 inhibition over CDK1 inhibition (CDK7/Cyclin H/MNAT1) | CDK2/CDK7: Selectivity of CDK7 inhibition over CDK2 inhibition (CDK7/Cyclin H/MNAT1) | CDK5/CDK7: Selectivity of CDK7 inhibition over CDK5 inhibition (CDK7/Cyclin H/MNAT1) | IC50 (CDK1/Cyclin B) [nM] | IC50 (CDK5/p25) [nM] | IC50 (CDK2/Cyclin A) [nM] |
| --- | --- | --- | --- | --- | --- | --- | --- |
| CO[C@H]1CC[C@H](Nc2nc(NCc3c(C)cccc3-n3ccc4cc(NC(=O)/C=C/CN(C)C)ccc43)n3ncc(C(C)C)c3n2)CC1 [Compound 140] | 100 to 1000 | B (B indicates 50 < [fold] ≤ 500) | B (B indicates 50 < [fold] ≤ 500) | B (B indicates 50 < [fold] ≤ 500) | > 1000 | > 1000 | > 1000 |
| C=C(F)C(=O)Nc1ccc2c(-c3ccccc3CNc3nc(NC[C@H]4CNCCO4)nc4c(C(C)C)cnn34)nccc2c1 [Compound 148] | < 100 | B (B indicates 50 < [fold] ≤ 500) | B (B indicates 50 < [fold] ≤ 500) | B (B indicates 50 < [fold] ≤ 500) | > 1000 | > 1000 | > 1000 |
| CO[C@H]1CC[C@H](Nc2cc(NCc3ccccc3-c3nccc4cc(NC(=O)/C=C/CN(C)C)ccc34)n3ncc(C(C)C)c3n2)CC1 [Compound 132] | < 100 | A (A indicates [fold] > 500) | A (A indicates [fold] > 500) | A (A indicates [fold] > 500) | > 1000 | > 1000 | > 1000 |
| CO[C@H]1CC[C@H](Nc2nc(NCc3ccccc3-c3nccc4cc(NC(=O)/C=C/CN5CCCCC5)ccc34)n3ncc(C(C)C)c3n2)CC1 [Compound 155] | < 100 | A (A indicates [fold] > 500) | A (A indicates [fold] > 500) | A (A indicates [fold] > 500) | > 1000 | > 1000 | > 1000 |
| C=C(F)C(=O)Nc1cccc2cc(-c3cccc(C)c3CNc3nc(NCC4CNCCO4)nc4c(C(C)C)cnn34)[nH]c12 (centres unmarked) [Compound 141] | < 100 | A (A indicates [fold] > 500) | A (A indicates [fold] > 500) | A (A indicates [fold] > 500) | > 1000 | > 1000 | > 1000 |
| COC1CCC(CNc2nc(NCc3ccccc3-c3nccc4cc(NC(=O)/C=C/CN(C)C)ccc34)n3ncc(C(C)C)c3n2)CC1 (centres unmarked) [Compound 136] | 100 to 1000 | B (B indicates 50 < [fold] ≤ 500) | B (B indicates 50 < [fold] ≤ 500) | B (B indicates 50 < [fold] ≤ 500) | > 1000 | > 1000 | > 1000 |
| CC(C)c1cnn2c(NCc3ccccc3-c3nccc4cc(NC(=O)/C=C/CN(C)C)ccc34)nc(O[C@@H]3CCCNC3)nc12 [Compound 152] | < 100 | A (A indicates [fold] > 500) | A (A indicates [fold] > 500) | A (A indicates [fold] > 500) | > 1000 | > 1000 | > 1000 |
| C=C(F)C(=O)Nc1ccc2c(-c3ccccc3CNc3nc(N[C@H]4CC[C@H](CS(=O)(=O)NC)CC4)nc4c(C(C)C)cnn34)nccc2c1 [Compound 143] | 100 to 1000 | B (B indicates 50 < [fold] ≤ 500) | B (B indicates 50 < [fold] ≤ 500) | B (B indicates 50 < [fold] ≤ 500) | > 1000 | > 1000 | > 1000 |
| C=C(F)C(=O)Nc1ccc2c(-c3ccccc3CNc3nc(N[C@H]4CC[C@H](NC)CC4)nc4c(C(C)C)cnn34)nccc2c1 [Compound 146] | < 100 | A (A indicates [fold] > 500) | A (A indicates [fold] > 500) | A (A indicates [fold] > 500) | > 1000 | > 1000 | > 1000 |
| Cc1cccc(-c2ccc3cccc(NC(=O)/C=C/CN(C)C)c3n2)c1CNc1nc(NCC2CCNCC2)nc2c(C(C)C)cnn12 [Compound 138] | < 100 | A (A indicates [fold] > 500) | A (A indicates [fold] > 500) | A (A indicates [fold] > 500) | > 1000 | > 1000 | > 1000 |
| CC(C)c1cnn2c(NCc3ccccc3-c3cc4cccc(NC(=O)/C=C/CN(C)C)c4[nH]3)nc(N3CCC(Nc4nccs4)C3)nc12 (centres unmarked) [Compound 216] | 100 to 1000 | B (B indicates 50 < [fold] ≤ 500) | B (B indicates 50 < [fold] ≤ 500) | B (B indicates 50 < [fold] ≤ 500) | > 1000 | > 1000 | > 1000 |
| CO[C@H]1CC[C@H](Nc2nc(NCc3c(C)cccc3-c3cc4cccc(NC(=O)/C=C/CN(C)C)c4[nH]3)n3ncc(C(C)C)c3n2)CC1 [Compound 129] | 100 to 1000 | B (B indicates 50 < [fold] ≤ 500) | B (B indicates 50 < [fold] ≤ 500) | B (B indicates 50 < [fold] ≤ 500) | > 1000 | > 1000 | > 1000 |
| CC#CC(=O)Nc1ccc2c(-c3ccccc3CNc3nc(N[C@H]4CC[C@H](OC)CC4)nc4c(C(C)C)cnn34)nccc2c1 [Compound 135] | 100 to 1000 | B (B indicates 50 < [fold] ≤ 500) | B (B indicates 50 < [fold] ≤ 500) | B (B indicates 50 < [fold] ≤ 500) | > 1000 | > 1000 | > 1000 |
| CN[C@H]1CC[C@H](Nc2nc(NCc3ccccc3-c3nccc4cc(NC(=O)/C=C/CN(C)C)ccc34)n3ncc(C(C)C)c3n2)CC1 [Compound 145] | < 100 | A (A indicates [fold] > 500) | A (A indicates [fold] > 500) | A (A indicates [fold] > 500) | > 1000 | > 1000 | > 1000 |
